Here are results for eight compounds from patent US7741464B2, “Compositions and methods of using CRMP-1 and its fragments for treating cancer” (Advpharma Inc., priority 2007, dated 2010).

For experiment [1], the system named is transient transfected colorectal cell lines (Caco-2, CC-M1, DLD-1). Nature of the experiment: Chemosensitivity of transient transfectants (cell counting). The format is cell-based, human. Conditions: with pNCRMP1 or pNCN3 transient transfected colorectal cell lines; data not shown. As to the method:
(§1) Six human cancer cell lines, including human colon cancer cell lines Caco-2, CC-M1, DLD-1; human prostate cancer cell lines DU145, PC-3; and human breast cancer cell line MCF-7, were tested in an experiment on improvement of chemosensitivity. Two expression plasmids, pNCRMP1 and pNCN3, and the pCI-neo vector (control plasmid), were used for transfection, respectively. The general cultivation conditions and transfection procedures were the same as described in Example 3.
(§2) Treatment of transient transfected cell lines using chemical agent was immediately performed as follows, and quantification of viable cells was performed by counting using hemocytometer after 3-days incubation at 37° C.: • (1) Three types of transient transfected human colorectal cancer cells were treated with 5-fluorouracil; • (2) The transient transfected human prostate cancer cell line DU145 was treated with Adriamycin™ (doxorubicin), cyclophosphamide and etoposide; • (3) The transient transfected human prostate cancer cell line PC3 was treated with cyclophosphamide, etoposide, and paclitaxel; and, • (4) The transient transfected human breast cancer cell line MCF-7 was treated with Adriamycin™ (doxorubicin) and paclitaxel.

Another experiment has as its system DU145 cells. Nature of the experiment: Antiproliferative effect after transient transfection. The format is cell-based, human. The conditions noted are these: for selectivity on antiproliferative ability: prostate cancer cells (PC-3, DU145) vs human prostate normal cell line PZ-HPV-7. An excerpt: (§3) All cell lines were purchased from Food Industry Research and Development Institute (FIRDI), Hsinshu, Taiwan. They were originated from different tissues or organs, including: • (1) human lung cancer cells: adenocarcinoma A549 (BCRC60074), squamous cell carcinoma H520 (BCRC60124), and large-cell carcinoma H460 (CCRC600373), • (2) human prostate cancer cell: adenocarcinoma PC-3 (CCRC60112) and carcinoma DU145 (CCRC60348) isolated from metastatic brain site; • (3) human colon cancer cells: adenocarcinoma SW 480 (CCRC60249), CC-M1 (BCRC60448), and DLD-1 (CCRC60132); • (4) human breast cancer cells: ductal carcinoma BT-474 (CCRC 60359), MCF-7 (CCRC60436), and ZR-75-1 (CCRC60055); • (5) Chinese hamster lung cell V79-4 (BCRC60183), and • (6) human prostate normal cell PZ-HPV-7 (CCRC60136).
(§4) The cultivation of cell lines was as described as the instruction provided by Food Industry Research and Development Institute (FIRDI), while 10% fetal bovine serum (JRH Biosciences, USA) was supplemented as final concentration, if necessary. The human prostate normal cell line PZ-HPV-7 was maintained in Keratinocyte-SFM medium (Life Technologies, Inc., US).
(§5) Mammalian cells were seeded to 6-well plate (Corning Inc., USA) with a cell density of 2˜8×10^5 and incubated at 37° C. for overnight prior to transfection. Each cell line was respectively transfected with the pCI-neo Mammalian Expression Vector (as control plasmid; Promega, USA) or with the hCRMP-1-related expression plasmid by using Lipofectamine™ Reagent (Invitrogen, #18324-020). A series of expression plasmid containing full-length or partial gene fragment of hCRMP-1, were pNCRMP1, pNCN1, pNCN3, pNCN4, pNCN5, pNCN6, and pNCN7, whose constructions were described in Example 1 and Example 2.
(§6) The nomenclature of transfected cell line was according to the cell line and expression plasmid and characterized as “cell line/expression plasmid.” Quantitation of viable cells after transfection was performed by using hemocytometer after 5-days incubation at 37° C. (R. Ian Freshney: Culture of Animal Cells, A Manual of Basic Technique, Chapter 20, pp. 309-312, WILEY-LISS, Canada (2000)).
(§7) The antiproliferative effect (in percentage) of each cell line transfected with individual expression plasmid was normalized with the same cell line transfected with control plasmid as follows: Antiproliferative effect=100%×(1−(number of cells transfected with expression plasmid÷number of cells transfected with control plasmid))

Experiment [2] has as its system MCF-7 transient transfectants. Nature of the experiment: Chemosensitivity of transient transfectants (cell counting). The format is cell-based. The conditions noted are these: Homo sapiens, MCF7, 72 h, read-out: IC50 of chemical agent. As to the method: as §1, §2
In experiment [3] the test system is H520 stable transfectants. Nature of the experiment: Chemosensitivity (MTT cytotoxicity) of stable transfectants. In kind it is cell-based. The conditions noted are these: Homo sapiens, read-out: IC50 of chemical agent. An excerpt: Three human cancer cell lines, including lung cancer cell line H520 and two human prostate cancer cell lines (PC-3 and DU145) were applied for selection of stable transfectants. Four expression plasmids, including pNCRMP1, pNCN1, pNCN3, and pNCN4, and the pCI-neo vector (as control plasmid) were used for transfection, respectively. The general cultivation condition and transfection procedures were the same as described in Example 3. The transfected cells were further cultivated under the same conditions as their parental cell lines and selected with 0.6-1 mg antibiotic G418 per ml (Kao et al., Oncogene 16: 546-554 (1998); Xiaolin et al, Cancer Research 65: 9762-9770 (2005)).
Three agents, including caffeic acid phenethyl ester (CAPE; Sigma, US), Adriamycin™ (doxorubicin) (Pharmacia & Upjohn S.P.A. Milan, Italy), and paclitaxel (Taxol; Bristol-Myers Squibb Co., Wallingford, Conn.), were dissolved in DMSO (dimethyl sulfoxide; Sigma) for preparation of stock solution, respectively. A serial dilution was prepared with DPBS buffer for chemosensitivity tests. The human lung squamous carcinoma stable transfectants H520 were treated with both CAPE and Adriamycin™ (doxorubicin) for four different concentrations, e.g. 0.05, 0.01, 0.002, and 0.0004 mM, while the administering of paclitaxel was performed at different concentrations, e.g. 1000, 200, 40, and 8 nM. Both types of prostate stable transfectants were only treated with paclitaxel for eight concentrations ranging from 0.1 mM to 1.28 nM with 1/5 dilution each step.
MTT (3-(4,5-dimethylthiazol-2-yl)-2,5-diphenyltetrazolium bromide; Sigma, Inc.) assay (Monks et al., J. Natl. Cancer Inst. 83:757-766 (1991); Paull et al, J. Natl. Cancer Inst. 81:1088-1092 (1989)) was applied for studying the cytotoxic effect of indicated agent. The absorbance was measured both at 545 nm and at 690 nm (served as reference) using the 96-well spectrophotometer reader (Emax, Molecular Device Inc., California, US) (Chen et al., Yi Xue Za Zhi (Taipei) 46:7-16 (1990)). The relative growth inhibition was calculated as follows: Relative growth inhibition=100%×(1−(OD545nm (Treated cells)−OD690nm(Treated cells))÷(OD545nm(untreated cells)−OD690nm(untreated cells)))
The 50% inhibition concentration (IC50) was determined after graphical plotting of spectrophotometric measurements and interpolation by EXCEL software.

Experiment [4] has as its system DU145 transient transfectants. Nature of the experiment: Chemosensitivity of transient transfectants (cell counting). In kind it is cell-based, human. Conditions: read-out: IC50 of chemical agent. On the procedure: as §1, §2
The subject of experiment [5] is PC-3 transient transfectants. The description is as above. Conditions: Homo sapiens, 72 h. The format is cell-based. As to the method: as §1, §2
Experiment [6] relates to poorly differenciated human lung adenocarcinoma cells. The conditions noted are these: cells established from a patient; Shih et al., J. Natl. Cancer Inst. 93(18) (2001); cited from earlier work.
The subject of the next experiment is PC-3 cells. Nature of the experiment: Antiproliferative effect after transient transfection. The conditions noted are these: PC-3, transient transfection, 5-days incubation, normalized to pCI-neo control plasmid. The format is cell-based, human.
Text: as §3, §4, §5, §6, §7

The test system of the next experiment is H460 cells. Described as above. In kind it is cell-based, human. Conditions: viable cells counted after 5-days incubation, normalized to pCI-neo control plasmid.
Text: as §3, §4, §5, §6, §7

Another experiment deals with CC-M1 cells. The experiment is described as above. In kind it is cell-based, human. The conditions noted are these: 5-days incubation, normalized to pCI-neo control plasmid.
Text: as §3, §4, §5, §6, §7

The test system of a further experiment is MCF-7 cells. The description is as above. The format is cell-based, human. Conditions: MCF-7, transient transfection, 5-days incubation, normalized to pCI-neo control plasmid.
Text: as §3, §4, §5, §6, §7

Setting [7] is: NCI-H520, stable transfectant H520/pCI-neo/1 (control plasmid), MTT.
Where [8] appears, read: NCI-H520, stable transfectant H520/pNCN1/1, MTT.
[9] abbreviates: NCI-H520, stable transfectant H520/pNCN3/1, MTT.
Setting [10] is: NCI-H520, stable transfectant H520/pNCN4/1, MTT.
The mark [11] stands for this setting: NCI-H520, stable transfectant H520/pNCRMP1/1, MTT.
The mark [12] stands for this setting: Homo sapiens, DU-145, 72 h, transient transfectant DU145/pCIneo (control plasmid), 3-days incubation.
The mark [13] stands for this setting: Homo sapiens, DU-145, 72 h, transient transfectant DU145/pNCN3, 3-days incubation.
The mark [14] stands for this setting: Homo sapiens, DU-145, 72 h, transient transfectant DU145/pNCRMP1, 3-days incubation.

Like-named read-outs stand apart in the source and are kept apart here.

Turning to `O=c1[nH]cc(F)c(=O)[nH]1` [5-fluorouracil], in experiment [1], the improvement of chemosensitivity result is reported as “no improvement of chemosensitivity”.

“CN7: active fragment of hCRMP-1, 458-572 of SEQ ID NO: 1 (SEQ ID NOS: 25 and 43)”: in the experiment with DU145 cells, the “selectivity on antiproliferative ability” value is recorded as 28%.

As for `COc1cccc2c1C(=O)c1c(O)c3c(c(O)c1C2=O)C[C@@](O)(C(=O)CO)C[C@@H]3O[C@H]1C[C@H](N)[C@H](O)[C@H](C)O1` [Adriamycin ™ (doxorubicin), doxorubicin], the IC50 is 2130 nM in experiment [2] (transient transfectant MCF-7/pCIneo (control plasmid), 3-days incubation); 320 nM in [2] (transient transfectant MCF-7/pNCN3, 3-days incubation); 100 nM in experiment [2] (transient transfectant MCF-7/pNCRMP1, 3-days incubation); 740 nM in [3] (setting [7]); under 400 nM in experiment [3] (setting [8]); under 400 nM in [3] (setting [9]). For the same compound, the IC50 in [3] (setting [10]) was 500 nM; in [3] (setting [11]), under 400 nM; in [4] (setting [12]), 73 nM; in experiment [4] (setting [13]), 60 nM; in [4] (setting [14]), 79 nM.

Turning to `O=P1(N(CCCl)CCCl)NCCCO1` (centres unmarked) [Cyclophosphamide, cyclophosphamide], the IC50 was over 100000 nM in [5] (read-out: IC50 of chemical agent, transient transfectant PC-3/pCIneo (control plasmid), 3-days incubation); 55000 nM in experiment [5] (read-out: IC50 of chemical agent, transient transfectant PC-3/pNCN3, 3-days incubation); over 100000 nM in experiment [5] (read-out: IC50 of chemical agent, transient transfectant PC-3/pNCRMP1, 3-days incubation); over 100000 nM in experiment [4] (Homo sapiens, DU-145, 72 h); over 100000 nM in experiment [4] (transient transfectant DU145/pCIneo (control plasmid), 3-days incubation); over 100000 nM in [4] (transient transfectant DU145/pNCN3, 3-days incubation).

In the case of “full-length hCRMP-1: human collapsin response mediator protein-1, full-length protein with 572 amino acids (SEQ ID NO: 1)”, in [6], the antiproliferative activity result is recorded as “no antiproliferative activity”. The Anti-proliferation effect result in the experiment on PC-3 cells is listed as “inhibits cancer cell proliferation”; in the experiment on H460 cells, “inhibits cancer cell proliferation”; in the experiment with H460 cells (listed as full-length CRMP-1), “has antiproliferative activity”; in the experiment with DU145 cells (DU145, transient transfection, 5-days incubation, normalized to pCI-neo control plasmid) it was “inhibits cancer cell proliferation”; in the experiment with CC-M1 cells it was “inhibits cancer cell proliferation”; with MCF-7 cells, “inhibits cancer cell proliferation”.

Take “CN3: active fragment of hCRMP-1, 208-480 of SEQ ID NO: 1 (SEQ ID NOS: 17 and 39)”: the “selectivity on antiproliferative ability” value in the experiment with DU145 cells is recorded as “around 20%”.

On to `O=C(/C=C/c1ccc(O)c(O)c1)OCCc1ccccc1` [CAPE, caffeic acid phenethyl ester], for which the IC50 in experiment [3] (setting [7]) was over 50000 nM; in experiment [3] (setting [8]), 23000 nM; in experiment [3] (setting [9]), 29000 nM; in experiment [3] (setting [10]), 27000 nM; in [3] (setting [11]), 17000 nM.

With `COc1cc([C@@H]2c3cc4c(cc3[C@@H](O[C@@H]3O[C@@H]5CO[C@@H](C)O[C@H]5[C@H](O)[C@H]3O)[C@H]3COC(=O)[C@H]23)OCO4)cc(OC)c1O` [Etoposide, etoposide], the IC50 in experiment [5] (transient transfectant PC-3/pCIneo (control plasmid), 3-days incubation, read-out: IC50 of chemical agent) was 64000 nM; in experiment [5] (transient transfectant PC-3/pNCN3, 3-days incubation, read-out: IC50 of chemical agent) it was over 100000 nM; in experiment [5] (transient transfectant PC-3/pNCRMP1, 3-days incubation, read-out: IC50 of chemical agent), 33000 nM; in [4] (setting [12]), 460 nM; in experiment [4] (setting [13]), 710 nM; in experiment [4] (setting [14]), 710 nM.
